Columns and labels:
Assay in all cases: β-arrestin based GPCR screen (PathHunter / GPCRmax), agonist mode
Type in all cases: cell-based
Set-up in all cases: host or cells: PathHunter cell lines
[1] = molecular target: 168 GPCRs (Homo sapiens, UniProt O00574)
Description: (§1) For agonist determination, cells were incubated with sample to induce response. […] Vehicle concentration was 1%.

[2] = molecular target: 168 GPCRs (Homo sapiens, UniProt P08912); conditions: CHRM5, Agonist
Description: as §1

[3] = molecular target: T1, 168 GPCRs (Homo sapiens, UniProt P24530); conditions: EDNRB
T1 sequence (P24530 27-442): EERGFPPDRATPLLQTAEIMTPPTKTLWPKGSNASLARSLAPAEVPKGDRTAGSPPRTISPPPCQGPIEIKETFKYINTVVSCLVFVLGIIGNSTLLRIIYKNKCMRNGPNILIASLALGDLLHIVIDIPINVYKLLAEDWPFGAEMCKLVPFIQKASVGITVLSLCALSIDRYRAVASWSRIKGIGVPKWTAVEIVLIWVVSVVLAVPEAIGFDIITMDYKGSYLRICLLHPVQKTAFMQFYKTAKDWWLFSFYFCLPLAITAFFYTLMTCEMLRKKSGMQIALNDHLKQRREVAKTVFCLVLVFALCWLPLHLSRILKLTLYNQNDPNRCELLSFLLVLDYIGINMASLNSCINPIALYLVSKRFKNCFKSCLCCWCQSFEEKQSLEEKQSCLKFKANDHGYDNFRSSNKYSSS
Description: as §1

[4] = molecular target: 168 GPCRs (Homo sapiens, UniProt P25090)
Description: as §1

[5] = molecular target: 168 GPCRs (Homo sapiens, UniProt P25929); conditions: NPY1R
Description: as §1

[6] = molecular target: 168 GPCRs (Homo sapiens, UniProt P32249)
Description: as §1

[7] = molecular target: 168 GPCRs (Homo sapiens, UniProt P34981); conditions: TRHR
Description: as §1

[8] = molecular target: 168 GPCRs (Homo sapiens, UniProt P35368); conditions: ADRA1B, Agonist
Description: as §1

[9] = molecular target: 168 GPCRs (Homo sapiens, UniProt P41146)
Description: as §1

[10] = molecular target: 168 GPCRs (Homo sapiens, UniProt P43116)
Description: as §1

[11] = molecular target: 168 GPCRs (Homo sapiens, UniProt P46091)
Description: as §1

[12] = molecular target: 168 GPCRs (Homo sapiens, UniProt P46663); conditions: BDKRB1, Agonist
Description: as §1

[13] = molecular target: 168 GPCRs (Homo sapiens, UniProt P47872); conditions: SCTR
Description: as §1

[14] = molecular target: 168 GPCRs (Homo sapiens, UniProt P47900)
Description: as §1

[15] = molecular target: 168 GPCRs (Homo sapiens, UniProt P50391)
Description: as §1

[16] = molecular target: 168 GPCRs (Homo sapiens, UniProt P51679); conditions: CCR4, Agonist
Description: as §1

[17] = molecular target: 168 GPCRs (Homo sapiens, UniProt P51686); conditions: CCR9, Agonist
Description: as §1

[18] = molecular target: 168 GPCRs (Homo sapiens, UniProt P61073)
Description: as §1

[19] = molecular target: 168 GPCRs (Homo sapiens, UniProt Q15722); conditions: LTB4R
Description: as §1

[20] = molecular target: 168 GPCRs (Homo sapiens, UniProt Q96P65)
Description: as §1

Sequence of 168 GPCRs (Homo sapiens, UniProt P08912) (P08912 whole entry): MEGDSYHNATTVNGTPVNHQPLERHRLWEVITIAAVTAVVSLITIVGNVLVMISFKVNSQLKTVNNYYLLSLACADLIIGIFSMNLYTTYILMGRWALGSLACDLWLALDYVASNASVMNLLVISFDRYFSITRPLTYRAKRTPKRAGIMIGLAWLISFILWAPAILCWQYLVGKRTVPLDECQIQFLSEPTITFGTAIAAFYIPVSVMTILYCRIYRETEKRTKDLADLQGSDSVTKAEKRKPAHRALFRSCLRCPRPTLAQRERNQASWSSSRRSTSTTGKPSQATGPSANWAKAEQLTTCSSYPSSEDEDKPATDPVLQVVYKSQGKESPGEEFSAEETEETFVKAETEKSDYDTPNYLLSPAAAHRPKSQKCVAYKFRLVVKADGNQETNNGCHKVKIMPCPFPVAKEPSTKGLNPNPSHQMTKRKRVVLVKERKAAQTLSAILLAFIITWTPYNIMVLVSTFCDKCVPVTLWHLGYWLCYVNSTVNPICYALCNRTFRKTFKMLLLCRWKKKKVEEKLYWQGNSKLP
Sequence of 168 GPCRs (Homo sapiens, UniProt P61073) (P61073 whole entry): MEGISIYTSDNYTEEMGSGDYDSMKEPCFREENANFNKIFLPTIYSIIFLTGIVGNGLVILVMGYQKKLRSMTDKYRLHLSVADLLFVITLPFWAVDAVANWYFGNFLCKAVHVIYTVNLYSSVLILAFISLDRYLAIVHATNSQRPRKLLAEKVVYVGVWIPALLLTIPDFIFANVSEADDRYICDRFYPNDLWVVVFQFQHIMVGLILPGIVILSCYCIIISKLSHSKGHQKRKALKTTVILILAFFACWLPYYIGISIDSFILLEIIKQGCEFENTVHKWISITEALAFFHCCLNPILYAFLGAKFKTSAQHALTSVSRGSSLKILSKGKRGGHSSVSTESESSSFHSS
Sequence of 168 GPCRs (Homo sapiens, UniProt P50391) (P50391 whole entry): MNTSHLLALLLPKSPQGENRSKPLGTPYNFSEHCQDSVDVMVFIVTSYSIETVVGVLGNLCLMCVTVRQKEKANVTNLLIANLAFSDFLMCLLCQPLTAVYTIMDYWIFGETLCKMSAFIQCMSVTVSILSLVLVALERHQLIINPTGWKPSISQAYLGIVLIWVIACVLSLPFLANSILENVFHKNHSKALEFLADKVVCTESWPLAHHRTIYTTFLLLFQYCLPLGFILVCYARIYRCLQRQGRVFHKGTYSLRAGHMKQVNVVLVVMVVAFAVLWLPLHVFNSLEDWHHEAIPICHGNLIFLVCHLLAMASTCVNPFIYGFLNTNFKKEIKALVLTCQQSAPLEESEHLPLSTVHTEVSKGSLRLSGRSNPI
Sequence of 168 GPCRs (Homo sapiens, UniProt O00574) (O00574 whole entry): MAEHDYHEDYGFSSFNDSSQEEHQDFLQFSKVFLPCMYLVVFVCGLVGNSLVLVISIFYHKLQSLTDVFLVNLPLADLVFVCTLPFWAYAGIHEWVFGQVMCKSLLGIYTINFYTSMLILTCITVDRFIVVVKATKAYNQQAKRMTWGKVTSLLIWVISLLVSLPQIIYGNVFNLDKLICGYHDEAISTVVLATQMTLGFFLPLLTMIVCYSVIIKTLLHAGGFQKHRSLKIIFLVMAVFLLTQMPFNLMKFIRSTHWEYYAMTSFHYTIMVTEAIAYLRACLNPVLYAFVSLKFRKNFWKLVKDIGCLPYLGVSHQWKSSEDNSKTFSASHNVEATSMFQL
Sequence of 168 GPCRs (Homo sapiens, UniProt P41146) (P41146 whole entry): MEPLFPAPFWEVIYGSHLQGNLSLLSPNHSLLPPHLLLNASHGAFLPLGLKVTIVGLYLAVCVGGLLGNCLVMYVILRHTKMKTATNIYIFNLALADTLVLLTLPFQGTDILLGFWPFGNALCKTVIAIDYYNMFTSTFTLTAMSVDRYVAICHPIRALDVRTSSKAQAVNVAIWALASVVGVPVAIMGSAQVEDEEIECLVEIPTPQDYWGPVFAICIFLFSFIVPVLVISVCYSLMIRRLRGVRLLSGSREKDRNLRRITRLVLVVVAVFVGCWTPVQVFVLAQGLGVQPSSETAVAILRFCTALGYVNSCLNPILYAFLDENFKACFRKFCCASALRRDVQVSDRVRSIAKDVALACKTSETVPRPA
Sequence of 168 GPCRs (Homo sapiens, UniProt P32249) (P32249 whole entry): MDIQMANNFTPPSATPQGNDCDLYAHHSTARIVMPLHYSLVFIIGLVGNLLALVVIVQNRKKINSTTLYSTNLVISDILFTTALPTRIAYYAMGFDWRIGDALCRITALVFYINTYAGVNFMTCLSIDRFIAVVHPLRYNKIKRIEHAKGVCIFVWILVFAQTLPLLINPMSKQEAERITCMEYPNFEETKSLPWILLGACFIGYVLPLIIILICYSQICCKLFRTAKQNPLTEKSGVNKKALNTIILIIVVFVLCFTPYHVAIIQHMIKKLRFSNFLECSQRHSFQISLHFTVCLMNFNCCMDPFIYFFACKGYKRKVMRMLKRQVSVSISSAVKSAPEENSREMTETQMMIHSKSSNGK
Sequence of 168 GPCRs (Homo sapiens, UniProt Q96P65) (Q96P65 whole entry): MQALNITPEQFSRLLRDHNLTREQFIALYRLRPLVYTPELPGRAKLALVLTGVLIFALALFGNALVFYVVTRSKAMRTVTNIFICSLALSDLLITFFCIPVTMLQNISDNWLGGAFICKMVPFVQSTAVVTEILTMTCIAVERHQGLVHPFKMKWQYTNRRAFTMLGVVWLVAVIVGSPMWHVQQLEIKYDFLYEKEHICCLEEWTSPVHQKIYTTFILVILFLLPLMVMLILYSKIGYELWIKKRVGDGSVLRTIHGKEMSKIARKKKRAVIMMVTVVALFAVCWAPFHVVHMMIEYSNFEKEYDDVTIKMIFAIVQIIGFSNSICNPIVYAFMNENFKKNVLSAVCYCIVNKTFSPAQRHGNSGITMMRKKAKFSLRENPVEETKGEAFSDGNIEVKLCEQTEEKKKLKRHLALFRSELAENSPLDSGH
Sequence of 168 GPCRs (Homo sapiens, UniProt P47872) (P47872 23-440): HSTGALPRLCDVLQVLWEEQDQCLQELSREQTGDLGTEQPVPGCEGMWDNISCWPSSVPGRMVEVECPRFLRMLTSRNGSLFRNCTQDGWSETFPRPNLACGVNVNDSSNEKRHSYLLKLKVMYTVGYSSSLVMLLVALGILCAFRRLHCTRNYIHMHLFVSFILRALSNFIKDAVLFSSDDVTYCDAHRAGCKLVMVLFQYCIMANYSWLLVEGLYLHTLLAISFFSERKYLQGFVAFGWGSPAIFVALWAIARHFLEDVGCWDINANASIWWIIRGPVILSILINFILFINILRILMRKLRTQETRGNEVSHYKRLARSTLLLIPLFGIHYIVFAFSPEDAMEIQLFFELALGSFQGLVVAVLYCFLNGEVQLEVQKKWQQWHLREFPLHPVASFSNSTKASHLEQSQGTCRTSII
Sequence of 168 GPCRs (Homo sapiens, UniProt Q15722) (Q15722 whole entry): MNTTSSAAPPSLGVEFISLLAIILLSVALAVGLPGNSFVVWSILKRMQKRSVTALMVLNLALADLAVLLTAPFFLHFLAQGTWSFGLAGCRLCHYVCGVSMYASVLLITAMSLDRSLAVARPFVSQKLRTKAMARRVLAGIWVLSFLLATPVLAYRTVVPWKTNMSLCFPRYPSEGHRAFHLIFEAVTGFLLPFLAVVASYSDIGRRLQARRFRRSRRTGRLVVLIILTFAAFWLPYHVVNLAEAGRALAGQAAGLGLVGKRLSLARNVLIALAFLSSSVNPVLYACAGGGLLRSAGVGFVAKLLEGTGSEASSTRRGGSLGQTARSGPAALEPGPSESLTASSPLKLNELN
Sequence of 168 GPCRs (Homo sapiens, UniProt P51686) (P51686 whole entry): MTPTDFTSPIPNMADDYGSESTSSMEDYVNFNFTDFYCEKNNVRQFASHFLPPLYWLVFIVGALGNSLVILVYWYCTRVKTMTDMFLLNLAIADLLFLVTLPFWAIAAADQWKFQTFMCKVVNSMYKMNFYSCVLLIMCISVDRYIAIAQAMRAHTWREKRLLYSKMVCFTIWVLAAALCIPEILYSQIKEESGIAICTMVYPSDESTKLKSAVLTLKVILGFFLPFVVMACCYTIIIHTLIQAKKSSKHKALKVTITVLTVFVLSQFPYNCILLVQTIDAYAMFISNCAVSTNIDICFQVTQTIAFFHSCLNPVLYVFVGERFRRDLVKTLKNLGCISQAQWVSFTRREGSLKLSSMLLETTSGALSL
Sequence of 168 GPCRs (Homo sapiens, UniProt P25929) (P25929 whole entry): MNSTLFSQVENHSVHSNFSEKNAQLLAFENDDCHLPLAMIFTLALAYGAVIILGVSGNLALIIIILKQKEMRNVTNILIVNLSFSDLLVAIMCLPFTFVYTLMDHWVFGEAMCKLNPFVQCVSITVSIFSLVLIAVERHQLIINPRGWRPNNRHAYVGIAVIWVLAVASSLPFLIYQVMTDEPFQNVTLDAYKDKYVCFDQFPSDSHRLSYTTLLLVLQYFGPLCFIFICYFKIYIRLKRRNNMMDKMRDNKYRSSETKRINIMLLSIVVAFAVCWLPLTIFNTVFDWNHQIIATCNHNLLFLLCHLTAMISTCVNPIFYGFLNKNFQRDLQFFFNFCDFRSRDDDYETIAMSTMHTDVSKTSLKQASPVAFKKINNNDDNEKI
Sequence of 168 GPCRs (Homo sapiens, UniProt P51679) (P51679 whole entry): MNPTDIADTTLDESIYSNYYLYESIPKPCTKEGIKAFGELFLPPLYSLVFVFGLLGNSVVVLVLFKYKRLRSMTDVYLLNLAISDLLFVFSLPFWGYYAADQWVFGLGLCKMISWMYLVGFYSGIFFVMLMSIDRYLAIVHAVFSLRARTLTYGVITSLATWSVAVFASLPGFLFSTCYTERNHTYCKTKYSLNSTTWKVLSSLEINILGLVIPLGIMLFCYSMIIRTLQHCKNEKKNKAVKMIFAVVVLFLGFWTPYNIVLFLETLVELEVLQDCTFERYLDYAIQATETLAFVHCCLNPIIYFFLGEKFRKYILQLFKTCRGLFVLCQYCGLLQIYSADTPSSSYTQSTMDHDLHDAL

CNC(C)C(=O)c1ccc2c(c1)OCO2 (stereo not shown) [methylone, 3,4-methylenedioxy-N-methylcathinone]
activity at 10 µM ([1]; CXCR6, Agonist mode, 10 uM): 0.3%
activity at 1 µM ([1]; CXCR6, Agonist, 1 uM): 0.3%
activity at 1 µM ([2]; 1 uM): 7.2%
activity at 10 µM ([2]; 10 uM): 8.7%
activity at 10 µM ([3]; Agonist mode, 10 uM): -0.1%
activity at 1 µM ([3]; Agonist, 1 uM): 0.7%
activity at 10 µM ([4]; FPRL1, Agonist mode, 10 uM): 0.1%
activity at 1 µM ([4]; FPRL1, Agonist, 1 uM): -0.5%
activity at 10 µM ([5]; Agonist mode, 10 uM): -4.9%
activity at 1 µM ([5]; Agonist, 1 uM): -2.2%
activity at 10 µM ([6]; EBI2, Agonist mode, 10 uM): 0.1%
activity at 1 µM ([6]; EBI2, Agonist, 1 uM): 0.5%
activity at 10 µM ([7]; Agonist mode, 10 uM): -2.2%
activity at 1 µM ([7]; Agonist, 1 uM): -2%
activity at 1 µM ([8]; 1 uM): -3.3%
activity at 10 µM ([8]; 10 uM): -2.9%
activity at 10 µM ([9]; OPRL1, Agonist mode, 10 uM): -2.3%
activity at 1 µM ([9]; OPRL1, Agonist, 1 uM): -1.6%
activity at 10 µM ([10]; PTGER2, Agonist mode, 10 uM): -3.1%
activity at 1 µM ([10]; PTGER2, Agonist, 1 uM): -1.4%
activity at 10 µM ([11]; GPR1, Agonist mode, 10 uM): -0.7%
activity at 1 µM ([11]; GPR1, Agonist, 1 uM): -0.5%
activity at 1 µM ([12]; 1 uM): -1.7%
activity at 10 µM ([12]; 10 uM): -2.5%
activity at 10 µM ([13]; Agonist mode, 10 uM): -1.4%
activity at 1 µM ([13]; Agonist, 1 uM): -2.6%
activity at 10 µM ([14]; P2RY1, Agonist mode, 10 uM): -4.1%
activity at 1 µM ([14]; P2RY1, Agonist, 1 uM): 2.2%
activity at 10 µM ([15]; PPYR1, Agonist mode, 10 uM): -1.2%
activity at 1 µM ([15]; PPYR1, Agonist, 1 uM): -1.7%
activity at 1 µM ([16]; 1 uM): -0.5%
activity at 10 µM ([16]; 10 uM): 1.4%
activity at 1 µM ([17]; 1 uM): -0.5%
activity at 10 µM ([17]; 10 uM): 0.2%
activity at 10 µM ([18]; CXCR4, Agonist mode, 10 uM): 7%
activity at 1 µM ([18]; CXCR4, Agonist, 1 uM): -4%
activity at 10 µM ([19]; Agonist mode, 10 uM): -0.8%
activity at 1 µM ([19]; Agonist, 1 uM): -0.3%
activity at 10 µM ([20]; GPR103, Agonist mode, 10 uM): 3.13%
activity at 1 µM ([20]; GPR103, Agonist, 1 uM): 0.8%
